Data from publication PMC12132910, “A Novel Inhibitor against the Bromodomain Protein 1 of the Malaria Pathogen Plasmodium Falciparum” (Chemmedchem, 2025).

What was measured:
P. falciparum NF54 [1] = assay: Growth of synchronous ring-stage cultures under treatment, NF54; format: cell-based, Plasmodium falciparum; conditions: 48 h of treatment
[2] = test system: P. falciparum K1 (multidrug resistant); assay: Malaria SYBR green I based fluorescence assay, dose response, K1; format: cell-based; conditions: Plasmodium falciparum, K1, 72 h, read-out: EC50 K1
Method: (§1) The BRDi compounds had modest activity against all three strains (Table 2 ). […]
resistant strain K1, MRA-159, contributed by Dennis E. Kyle. […]
(§2) Shield1. Parasites were propagated in human red blood cells (blood group 0+) obtained from the Bavarian Red Cross service (BRK) and cultivated under standard conditions in RPMI 1640 (ThermoFisher) supplemented with 0.5% Albumax
(§3) (ThermoFisher), 20 µg/ml Gentamycin, 25 mM Hepes (pH 7.3), and 0.02% hypoxanthine in an atmosphere of 1% O2, 5% CO2, 94% N2.
(§4) Malaria SYBR green I based fluorescence assay
(§5) SYBR Green I based fluorescence assays to determine dose-response curves were performed essentially as described previously (Leidenberger et al., 2017). Briefly, parasite cultures were diluted to 1% ring stage parasitemia and cultivated at 2.5% haematocrit in 96 well plates in the presence of serial half-log dilutions of the compounds ranging from 100 µM to 10 nM or DMSO (dimethyl sulfoxide) corresponding to the highest concentration (0.1%). Chloroquine (C6628, Sigma-Aldrich) was used as control that was not expected to target PfBDP1 and was titrated from 5 µM to 1.6 nM. After 72 hours, cultures were lysed in lysis buffer (20 mM Tris-HCl, 5 mM EDTA, 0.008% saponin (Sigma-Aldrich), 0.08% Triton X (Sigma-Aldrich), 1:10,000 SYBR Green I dye (Invitrogen)) and fluorescence was measured in a Fluoroskan Ascent FL reader (excitation: 485 nm, emission: 530 nm). […]

P. falciparum 3D7 [3] = assay: Growth of synchronous ring-stage cultures under treatment, 3D7; format: cell-based, Plasmodium falciparum; conditions: 3D7, synchronous ring stage, 48 h of treatment
P. falciparum 3D7 [4] = assay: Malaria SYBR green I based fluorescence assay, dose response, 3D7; format: cell-based; conditions: Plasmodium falciparum, blood stage culture, 72 hours, mean (SD), 1 to 3 biological replicates
Method: as §1, §2, §3, §4, §5

P. falciparum NF54 [5] = assay: Malaria SYBR green I based fluorescence assay, dose response, NF54; format: cell-based; conditions: Plasmodium falciparum, blood stage culture, 72 hours, mean (SD), 1 to 3 biological replicates
Method: as §1, §2, §3, §4, §5

[6] = test system: P. falciparum blood stage parasites; assay: Morphology and stage progression of treated synchronous parasites; format: cell-based, Plasmodium falciparum
[7] = test system: 3D7::PfBDP1HADD parasites; assay: Dose-response assay in conditional PfBDP1 knockdown parasites; format: cell-based, Plasmodium falciparum; conditions: 10 nM Shld1 compared to 500 nM Shld1, 72 h
Source text: To validate whether the compounds indeed target the BRD of PfBDP1, we utilized a conditional KD system to modulate the expression levels of PfBDP1 in situ.^[ [15] ^] In the 3D7::PfBDP1HADD line, PfBDP1 is fused at its C‐terminus to a ligand‐regulatable FKBP destabilization domain (DD) that targets the fusion protein for proteasomal degradation but can be stabilized by the Shield1 ligand, and 3xHA epitope tags for detection ^11. […] In contrast, the EC50 of chloroquine was unchanged.
A) Western Blot analysis of 3D7::PfBDP1HADD parasites cultivated in the presence of Shield1 (Shld) in concentrations ranging from 0 to 500 nM over 72 h in duplicates. PfBDP1HADD was detected by anti‐HA antibodies. Histone 3 (H3) was probed as a loading control. […] Growth was determined relative to DMSO controls for each condition after 72 h of culture. N = 4 replicates. […] Binding of PfBDP1HA to target loci was calculated as enrichment relative to histone H3 ChIP performed in parallel. Shown are individual values and median of one representative experiment with technical duplicates. Paired t‐test, p = 0.0015. […]
resistant strain K1, MRA-159, contributed by Dennis E. Kyle. The NF54::PfBDP1HA parasite line was generated by transfection of NF54 parasites with the plasmid pSLI_PfBDP1_3xHA and selection linked integration of the construct in the presence of G418[21]. […]
as §4
SYBR Green I based fluorescence assays to determine dose-response curves were performed essentially as described previously (Leidenberger et al., 2017). […] After 72 hours, cultures were lysed in lysis buffer (20 mM Tris-HCl, 5 mM EDTA, 0.008% saponin (Sigma-Aldrich), 0.08% Triton X (Sigma-Aldrich), 1:10,000 SYBR Green I dye (Invitrogen)) and fluorescence was measured in a Fluoroskan Ascent FL reader (excitation: 485 nm, emission: 530 nm). […]

Cc1cc(C(N)=O)ccc1-c1[nH]c(C)c2c1CCCCC2=O [RMM23, 3-Methyl-4-(3-methyl-4-oxo-2,4,5,6,7,8-hexahydrocyclohepta[c]pyrrol-1-yl)benzamide]
parasite growth after treatment of ring-stage culture (P. falciparum NF54 [1]): significantly reduced growth | EC50 [2]: 20.9 µM | parasite growth after treatment of ring-stage culture (P. falciparum 3D7 [3]): significantly reduced growth | EC50 (P. falciparum 3D7 [4]): 18.3 µM | EC50 (P. falciparum NF54 [5]): 14 µM | parasite development (morphology) after treatment from ring stage ([6]; treatment started at ring stage, normal trophozoites by 24 h): failed to undergo DNA replication and schizogony | parasite development after treatment from trophozoite stage ([6]; treatment started at trophozoite stage, within 24 h, relative to DMSO control): block in egress and reinvasion | change of sensitivity (dose-response, EC50) under partial PfBDP1 knockdown [7]: increased sensitivity
